Results: ChEMBL document CHEMBL1139601, “Novel 2-N,N-dimethylaminomethyl-2,3,3a,12b-tetrahydrodibenzo[b,f]furo[2,3-d]oxepin derivatives displaying combined norepinephrine reuptake inhibition and 5-HT2A/2C receptor antagonism” (Bioorg Med Chem Lett, 2005)

How the values were obtained:
[1] = molecular target: T1, 5-hydroxytryptamine receptor 2C (Homo sapiens, UniProt P28335); assay: In vitro binding affinity against 5-hydroxytryptamine 2C receptor using [3H]mesulergine as radioligand expressed in CHO cells; type: cell-based
T1 sequence (P28335 whole entry): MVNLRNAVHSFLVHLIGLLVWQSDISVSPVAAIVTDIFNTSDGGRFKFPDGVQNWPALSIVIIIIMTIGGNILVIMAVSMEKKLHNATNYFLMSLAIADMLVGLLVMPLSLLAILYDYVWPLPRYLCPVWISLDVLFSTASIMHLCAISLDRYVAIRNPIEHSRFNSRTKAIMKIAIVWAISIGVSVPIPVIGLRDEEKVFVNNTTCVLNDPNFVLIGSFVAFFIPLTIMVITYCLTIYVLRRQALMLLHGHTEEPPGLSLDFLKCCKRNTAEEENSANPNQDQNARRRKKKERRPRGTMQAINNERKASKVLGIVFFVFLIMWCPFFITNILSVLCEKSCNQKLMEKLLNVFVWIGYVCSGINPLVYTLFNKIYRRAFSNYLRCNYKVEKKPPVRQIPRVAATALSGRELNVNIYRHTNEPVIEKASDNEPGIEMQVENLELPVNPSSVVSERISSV

[2] = molecular target: 5-hydroxytryptamine receptor 2A (Homo sapiens, UniProt P28223); assay: In vitro binding affinity against 5-hydroxytryptamine 2A receptor using [125I]R91150 as radioligand expressed in L929 cells; type: cell-based
Rattus norvegicus [3] = assay: In vivo effective dose for the reversal of tryptamine-induced cyanosis in rat; type: functional
Mus musculus = assay: In vivo effective dose for the reversal of RO-4-1284 induced hypothermia in mice; type: functional
Rattus norvegicus [4] = assay: In vivo effective for the antagonism of m-chlorophenyl-piperazine induced anxiety in rat; type: functional
Rattus norvegicus [5] = assay: In vivo effective dose for the reversal of tryptamine-induced bilateral convulsions in rat; type: functional

Sequence of 5-hydroxytryptamine receptor 2A (P28223 whole entry): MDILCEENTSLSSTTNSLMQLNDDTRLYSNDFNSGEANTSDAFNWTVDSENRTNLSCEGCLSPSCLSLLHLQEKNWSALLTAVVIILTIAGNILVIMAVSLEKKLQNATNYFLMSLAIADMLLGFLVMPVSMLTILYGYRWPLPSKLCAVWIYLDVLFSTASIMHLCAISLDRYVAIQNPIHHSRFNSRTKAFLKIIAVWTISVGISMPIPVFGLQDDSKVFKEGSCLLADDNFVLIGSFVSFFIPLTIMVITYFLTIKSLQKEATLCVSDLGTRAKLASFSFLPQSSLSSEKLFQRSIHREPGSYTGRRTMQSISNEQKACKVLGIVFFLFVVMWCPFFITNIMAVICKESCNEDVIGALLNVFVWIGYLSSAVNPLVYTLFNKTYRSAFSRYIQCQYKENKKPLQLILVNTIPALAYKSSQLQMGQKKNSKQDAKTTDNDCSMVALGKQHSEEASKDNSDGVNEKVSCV

Compound: CN(C)C[C@H]1C[C@H]2c3ccccc3Oc3ccc(Br)cc3[C@H]2O1
- Ki [1]: 87 nM

Compound: Brc1ccc2c(c1)[C@H]1O[C@H](Cn3oc4ccc(-c5ccccc5)cc43)C[C@H]1c1ccccc1O2
- Ki [1]: 183 nM
- Ki [2]: 307 nM

Compound: CN(C)C[C@H]1C[C@H]2c3ccccc3Oc3ccccc3[C@@H]2O1
- ED50 (Rattus norvegicus [3]): > 2.5 mg/kg
- ED50 (Mus musculus): 1.25 mg/kg
- ED50 (Rattus norvegicus [4]): > 2.5 mg/kg
- ED50 (Rattus norvegicus [5]): 3.15 mg/kg
- Ki [1]: 183 nM
- Ki [2]: 92 nM

Compound: O=C1CCN1c1ccc2on(C[C@@H]3C[C@H]4c5ccccc5Oc5ccc(Br)cc5[C@H]4O3)c2c1
- Ki [1]: 356 nM
- Ki [2]: 306 nM

Compound: CN(C)C[C@@H]1C[C@H]2c3ccccc3Oc3ccc(F)cc3[C@H]2O1
- ED50 (Rattus norvegicus [3]): 0.5 mg/kg
- ED50 (Mus musculus): 0.02 mg/kg
- ED50 (Rattus norvegicus [4]): 0.5 mg/kg
- ED50 (Rattus norvegicus [5]): 0.5 mg/kg
- Ki [2]: 104 nM

Compound: CN(C)C[C@H]1C[C@@H]2c3ccccc3Oc3ccccc3[C@H]2O1
- ED50 (Rattus norvegicus [3]): > 2.5 mg/kg
- ED50 (Mus musculus): > 2.5 mg/kg
- ED50 (Rattus norvegicus [5]): > 2.5 mg/kg
- Ki [1]: 179 nM
- Ki [2]: 16 nM

Compound: CN(C)C[C@H]1C[C@H]2c3ccccc3Oc3ccc(F)cc3[C@H]2O1
- ED50 (Rattus norvegicus [3]): 5 mg/kg
- ED50 (Mus musculus): 0.13 mg/kg
- ED50 (Rattus norvegicus [4]): > 2.5 mg/kg
- ED50 (Rattus norvegicus [5]): 1.98 mg/kg
- Ki [1]: 63 nM
- Ki [2]: 423 nM

Compound: CN(C)C[C@@H]1C[C@H]2c3ccccc3Oc3ccc(Cl)cc3[C@H]2O1
- ED50 (Rattus norvegicus [3]): 0.2 mg/kg
- ED50 (Mus musculus): 0.5 mg/kg
- ED50 (Rattus norvegicus [4]): > 2.5 mg/kg
- ED50 (Rattus norvegicus [5]): 0.08 mg/kg

Compound: N#Cc1ccc2on(C[C@@H]3C[C@H]4c5ccccc5Oc5ccc(Br)cc5[C@H]4O3)c2c1
- Ki [1]: 183 nM
- Ki [2]: 185 nM

Compound: CN(C)C[C@@H]1C[C@H]2c3ccccc3Oc3ccc(Br)cc3[C@H]2O1
- ED50 (Rattus norvegicus [3]): 0.79 mg/kg
- ED50 (Mus musculus): 3.15 mg/kg
- ED50 (Rattus norvegicus [4]): > 2.5 mg/kg
- ED50 (Rattus norvegicus [5]): 0.32 mg/kg
- Ki [1]: 6 nM

Compound: Nc1ccc2on(C[C@@H]3C[C@H]4c5ccccc5Oc5ccc(Br)cc5[C@H]4O3)c2c1
- Ki [1]: 270 nM
- Ki [2]: 255 nM

Compound: CCOC(=O)c1ccc2on(C[C@@H]3C[C@H]4c5ccccc5Oc5ccc(Br)cc5[C@H]4O3)c2c1
- Ki [1]: 246 nM
- Ki [2]: 97 nM

Compound: CN(C)C[C@H]1C[C@H]2c3ccccc3Oc3ccc(Cl)cc3[C@H]2O1
- ED50 (Rattus norvegicus [3]): 0.8 mg/kg
- ED50 (Mus musculus): 0.05 mg/kg
- ED50 (Rattus norvegicus [4]): > 2.5 mg/kg
- ED50 (Rattus norvegicus [5]): 0.32 mg/kg
- Ki [1]: 21 nM

Compound: COc1ccc2c(c1)[C@H]1O[C@@H](CN(C)C)C[C@H]1c1ccccc1O2
- Ki [1]: 235 nM
- Ki [2]: 193 nM

Compound: Brc1ccc2c(c1)[C@H]1O[C@H](Cn3oc4ccc(N5CCOCC5)cc43)C[C@H]1c1ccccc1O2
- Ki [1]: > 5450 nM
- Ki [2]: 306 nM

Compound: Cc1ccc2on(C[C@@H]3C[C@H]4c5ccccc5Oc5ccc(Br)cc5[C@H]4O3)c2c1
- ED50 (Rattus norvegicus [3]): 0.5 mg/kg
- ED50 (Mus musculus): 1.99 mg/kg
- ED50 (Rattus norvegicus [4]): 0.8 mg/kg
- ED50 (Rattus norvegicus [5]): 0.5 mg/kg
- Ki [1]: 58 nM
- Ki [2]: 36 nM

Compound: Brc1ccc2c(c1)[C@H]1O[C@H](Cn3oc4ccc(CN5CCOCC5)cc43)C[C@H]1c1ccccc1O2
- Ki [1]: 4100 nM
- Ki [2]: 189 nM

Compound: COc1ccc2c(c1)[C@H]1O[C@H](CN(C)C)C[C@H]1c1ccccc1O2
- ED50 (Rattus norvegicus [3]): 1.26 mg/kg
- ED50 (Mus musculus): 0.79 mg/kg
- ED50 (Rattus norvegicus [4]): > 2.5 mg/kg
- ED50 (Rattus norvegicus [5]): 0.32 mg/kg
- Ki [2]: 22 nM

Compound: CN(C)c1ccc2on(C[C@@H]3C[C@H]4c5ccccc5Oc5ccc(Br)cc5[C@H]4O3)c2c1
- Ki [1]: 157 nM
- Ki [2]: 95 nM
